Results as given in patent publication US20120189558A1, “ANTI-BACTERIAL COMPOSITIONS COMPRISING EXTRACTS OF EREMOPHILA LONGIFOLIA AND METHODS FOR USE OF SAME” (priority 2009, published 2012).
In brackets after ≈: the same amount, converted by molar mass. Each block holds one compound with its values, some of them ahead of it.

Assays:
[1] = test system: Streptococcus mutans (969); test: Plate-hole and disk diffusion assays; assay type: cell-based; details: S. mutans, 2 mg/ml positive control, mean +/- SD of three plate-hole and three disk diffusion assays
Procedure: (§1) Plate-hole diffusion assays were used to test for antibacterial activity (Palombo and Semple, 2001). A pure colony of each culture was grown in BHI broth and 200 μL were added to 15 ml of molten BHI agar. The inoculated agar was gently mixed and transferred to a sterile petri dish. Once set and dried, a sterilised core-borer (6 mm diameter) was used to make wells in the agar, and 10 μL of plant extract were added into each well. One well on each plate was filled with neat solvent as a control. Disk diffusion assays were also used to test for antibacterial activity (Pennacchio et al., 2005). 10 μL of each extract and control were placed on sterile paper disks (6 mm diameter, Oxoid) and allowed to dry for 25 minutes. 100 μL of each overnight (ON) culture was spread on BHI agar and allowed to dry for 10 minutes. Disks were transferred to the agar surface. Both plate-hole and disk diffusion assays were incubated overnight at 37° C. in candle jars and were carried out in triplicate.

S. sobrinus (6715-247) = test: Plate-hole and disk diffusion assays; assay type: cell-based, Streptococcus sobrinus; details: 2 mg/ml positive control, mean +/- SD of three plate-hole and three disk diffusion assays
Procedure: as §1

[2] = test system: salivary bacteria biofilm; test: Salivary bacteria artificial biofilm assay; assay type: cell-based, human; details: 5 mg/ml, 1 hour treatment
Procedure: (§2) Artificial biofilm assays were performed based on the method of Alviano et al. (2008). Non-stimulated saliva was collected from a healthy donor and 20 μL was placed on sterile 0.22 μm Millipore membrane disks of 13 mm diameter, previously placed over BHI agar plates. Plates were incubated for 48 hours at 37° C. After biofilm growth, the disks were collected and each disk was placed inside a bottle containing 3 ml of stem extract (5 mg/ml or 10 mg/ml in ethanol), Milli-Q distilled water or ethanol for 1 hour at 37° C. with gentle shaking. Then, the disks were briefly washed with Milli-Q distilled water to remove the plant extract and unbound bacterial cells, and the biofilm was extracted by vortexing the disks in 1 ml of BHI broth. Immediately, serial dilutions were performed and 100 μL of each dilution were spread on BHI agar. The plates were incubated in candle jars for 48 hours at 37° C. and a viable count was performed. An S. mutans artificial biofilm assay was performed by repeating the above method except that a pure ON culture of S. mutans was grown on the membrane disks instead of salivary bacteria. Both this assay and the salivary assay were performed in duplicate.

S. mutans biofilm = test: S. mutans artificial biofilm assay; assay type: cell-based, Streptococcus mutans; details: 5 mg/ml, 1 hour treatment
Procedure: as §2

[3] = test system: Burkholderia cepacia - antibiotic-susceptible clinical isolate; test: MIC by CLSI microbroth dilution; assay type: cell-based; details: isolate GN14
Procedure: (§3) A study was carried out to determine the minimum inhibitory concentration (MIC) for Emubush extract and a comparator against a panel of isolates using Clinical and Laboratory Standards Institute (CLSI) broth methodology.
(§4) The Emubush extract was prepared by dissolving 95.2 mg in ethanol. The solvent was then evaporated off and the material re-dissolved in ethanol at room temperature.
(§5) MIC was determined by microbroth dilution following CLSI methodology. [CLSI Methods for Dilution Antimicrobial Susceptibility Tests for Bacteria That Grow Aerobically; Approved Standard-Eighth Edition. CLSI Document M07-A8. CLSI, Wayne, Pa. 19087-1898, USA, 2009].

[4] = test system: Pseudomonas aeruginosa - multi-drug resistant clinical isolate; test: MIC by CLSI microbroth dilution; assay type: cell-based; details: isolate GN11
Procedure: as §3, §4, §5

[5] = test system: Serratia marcescens - antibiotic-susceptible clinical isolate; test: MIC by CLSI microbroth dilution; assay type: cell-based; details: isolate GN08
Procedure: as §3, §4, §5

[6] = test system: Serratia marcescens - multi-drug resistant clinical isolate; test: MIC by CLSI microbroth dilution; assay type: cell-based; details: isolate GN09
Procedure: as §3, §4, §5

[7] = test system: Staphylococcus aureus - methicillin-resistant clinical isolate; test: MIC by CLSI microbroth dilution; assay type: cell-based; details: isolate GP4
Procedure: as §3, §4, §5

[8] = test system: Staphylococcus aureus ATCC 29213 - antibiotic-susceptible type strain; test: MIC by CLSI microbroth dilution; assay type: cell-based; details: ATCC29213, isolate GP1
Procedure: as §3, §4, §5

[9] = test system: Staphylococcus aureus ATCC 43300 - methicillin-resistant type strain; test: MIC by CLSI microbroth dilution; assay type: cell-based; details: ATCC43300, isolate GP3
Procedure: as §3, §4, §5

[10] = test system: Staphylococcus epidermidis - antibiotic susceptible clinical isolate; test: MIC by CLSI microbroth dilution; assay type: cell-based; details: isolate GP7
Procedure: as §3, §4, §5

[11] = test system: Staphylococcus epidermidis - methicillin-resistant clinical isolate; test: MIC by CLSI microbroth dilution; assay type: cell-based; details: isolate GP8
Procedure: as §3, §4, §5

[12] = test system: Stenotrophomonas maltophilia - antibiotic-susceptible clinical isolate; test: MIC by CLSI microbroth dilution; assay type: cell-based; details: isolate GN12
Procedure: as §3, §4, §5

[13] = test system: Streptococcus pneumoniae - multi-drug resistant clinical isolate; test: MIC by CLSI microbroth dilution; assay type: cell-based; details: isolate GP24
Procedure: as §3, §4, §5

[14] = test system: Streptococcus pyogenes - antibiotic-susceptible clinical isolate; test: MIC by CLSI microbroth dilution; assay type: cell-based; details: isolate GP59
Procedure: as §3, §4, §5

[15] = test system: Stenotrophomonas maltophila - antibiotic-resistant clinical isolate; test: MIC by CLSI microbroth dilution; assay type: cell-based, Stenotrophomonas maltophilia; details: Stenotrophomonas sp. LMG 10879; isolate GN13
Procedure: as §3, §4, §5

[16] = test system: a selection of Streptococcus species; details: isolated active compound; Hu et al., 2000; cited from earlier work

SMILES: [H]/N=C(\N/C(=N/[H])NCCCCCCNC(=N)NC(=N)Nc1ccc(Cl)cc1)Nc1ccc(Cl)cc1 [Chlorhexidine, chlorhexidine]
mean diameter of the growth inhibition zone [1]: 22.1 +/− 0.6 mm | mean diameter of the growth inhibition zone ([1]; listed as chlorhexidine): 22.1+/−0.6 mm | mean diameter of the growth inhibition zone (S. sobrinus (6715-247)): 20.5 +/− 0.6 mm | mean diameter of the growth inhibition zone (S. sobrinus (6715-247); listed as chlorhexidine): 20.5+/−0.6 mm | reduction in viable biofilm cells [2]: greatest reduction in viable biofilm bacteria | reduction in viable biofilm cells (S. mutans biofilm): greatest reduction in viable biofilm bacteria

MIC [3]: 1 µg/mL (≈ 2.77 µM) | MIC [4]: 4 µg/mL (≈ 11.1 µM) | MIC [5]: 0.06 µg/mL (≈ 0.166 µM) | MIC [6]: 2 µg/mL (≈ 5.53 µM) | MIC [7]: 0.12 µg/mL (≈ 0.332 µM) | MIC [8]: 0.25 µg/mL (≈ 0.692 µM) | MIC [9]: 0.12 µg/mL (≈ 0.332 µM) | MIC [10]: 0.12 µg/mL (≈ 0.332 µM) | MIC [11]: 0.12 µg/mL (≈ 0.332 µM) | MIC [12]: 0.12 µg/mL (≈ 0.332 µM) | MIC [13]: 1 µg/mL (≈ 2.77 µM) | MIC [14]: 0.5 µg/mL (≈ 1.38 µM) | MIC [15]: 2 µg/mL (≈ 5.53 µM)
SMILES: C[C@H]1COc2c(N3CCN(C)CC3)c(F)cc3c(=O)c(C(=O)O)cn1c23 [Levofloxacin]

SMILES: COc1ccc2cc3[n+](cc2c1OC)CCc1cc2c(cc1-3)OCO2 [berberine]
MIC [16]: 13 to 20 µg/mL
